According to publication PMC5562523 (Cell chemical biology, 2017):

What was measured:
CDC1551 (ΔphoPR) = format: cell-based; settings: acidic pH
CDC1551 katG::Tn mutant = format: cell-based, Mycobacterium tuberculosis; settings: pH 5.7

`COc1ccc(NC(=O)c2nc(S(C)(=O)=O)ncc2Cl)cc1Cl` [AC2P36, 5-chloro-N-(3-chloro-4-methoxyphenyl)-2-methylsulfonylpyrimidine-4-carboxamide] was tested, and the “sensitivity of ΔphoPR mutant vs WT to AC2P36” value (CDC1551 (ΔphoPR)) was “no differences were observed between WT or ΔphoPR sensitivity to AC2P36” and the “sensitivity of WT, katG::Tn mutant and complemented strain to AC2P36” value (CDC1551 katG::Tn mutant) was “No difference was observed between the three strains”.
